Key:
PI3Kγ (p120γ) = target: T1, PI3Kγ (p120γ) (Homo sapiens, UniProt P48736); assay: Inhibition of PI3K kinase activity (ADP Glo), PI3Kγ; details: Table 2, p120γ, read-out: biochemical potency (PI3Kγ IC50)
T1 construct: purchased Promega V1761
Summary of the method: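 Recombinant p120γ (8 nM, 2× stock) was preincubated with compound for 1 h at rt in HEPES pH 7.4, NaCl, MgCl2 and 0.05% BSA. Reaction was started with PIP2 (0.1 mg/ml, 2×) and ATP (50 μM, 2×) and ran 60 min at rt. ADP formed was read by ADP-Glo luminescence, and IC50 came from a 4-parameter fit.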

PI3Kγ = target: T2, PI3Kγ (Homo sapiens, UniProt P48736); assay: PI3Kγ cellular assay in THP-1 cells (AKT pS473 AlphaLISA); assay type: cell-based; details: Table 2, rhMCP-1 stimulated AKT pS473, read-out: cellular potency (PI3Kγ IC50)
T2 construct: host or cells: THP-1
Summary of the method: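 Serum-starved THP-1 cells (1.8×10^5/well, serum-free DMEM) treated with compounds from 4 nM to 30 μM in 2% DMSO, then stimulated and lysed.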

T1 sequence (P48736 whole entry): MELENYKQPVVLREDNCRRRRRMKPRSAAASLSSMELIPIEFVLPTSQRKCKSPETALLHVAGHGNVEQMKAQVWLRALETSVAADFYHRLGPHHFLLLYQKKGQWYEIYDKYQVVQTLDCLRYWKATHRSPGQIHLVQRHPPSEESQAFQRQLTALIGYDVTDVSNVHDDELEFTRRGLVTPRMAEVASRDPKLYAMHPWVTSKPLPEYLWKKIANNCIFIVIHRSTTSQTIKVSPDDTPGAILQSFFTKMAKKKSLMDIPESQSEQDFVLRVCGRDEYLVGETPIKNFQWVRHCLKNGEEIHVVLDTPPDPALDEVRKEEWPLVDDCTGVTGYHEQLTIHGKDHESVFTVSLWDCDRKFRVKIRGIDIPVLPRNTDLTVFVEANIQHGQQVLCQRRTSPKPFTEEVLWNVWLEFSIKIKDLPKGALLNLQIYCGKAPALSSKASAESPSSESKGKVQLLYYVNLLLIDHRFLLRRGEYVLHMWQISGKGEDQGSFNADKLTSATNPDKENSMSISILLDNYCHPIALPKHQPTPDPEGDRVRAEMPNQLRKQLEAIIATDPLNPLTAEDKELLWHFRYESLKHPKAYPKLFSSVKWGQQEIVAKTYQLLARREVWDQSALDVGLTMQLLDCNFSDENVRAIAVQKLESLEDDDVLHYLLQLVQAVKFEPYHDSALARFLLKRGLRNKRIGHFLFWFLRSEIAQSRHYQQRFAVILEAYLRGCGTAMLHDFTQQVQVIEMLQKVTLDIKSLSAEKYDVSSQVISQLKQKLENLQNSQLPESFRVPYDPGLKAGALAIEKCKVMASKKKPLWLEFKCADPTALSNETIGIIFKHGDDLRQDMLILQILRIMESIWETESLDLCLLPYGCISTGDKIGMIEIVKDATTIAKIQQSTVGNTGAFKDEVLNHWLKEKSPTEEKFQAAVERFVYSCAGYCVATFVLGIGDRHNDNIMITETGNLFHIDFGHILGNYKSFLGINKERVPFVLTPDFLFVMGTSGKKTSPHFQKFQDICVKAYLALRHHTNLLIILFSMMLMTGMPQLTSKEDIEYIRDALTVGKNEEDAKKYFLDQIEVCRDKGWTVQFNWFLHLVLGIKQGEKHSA
T2 sequence (P48736 whole entry): as above

SMILES | IC50 (PI3Kγ (p120γ)) [nM] | IC50 (PI3Kγ) [nM]
Cc1cc(-c2ccn3nc(N)c(C(=O)N[C@@H]4c5ccccc5C[C@@H]4O)c3n2)cc2c1C(=O)N([C@@H](C)C1CC1)C2 [Example 240] | < 100 | 100 to 1000
Cc1cc(-c2ccn3nc(N)c(C(=O)NC4CS(=O)(=O)C4)c3n2)cc2c1C(=O)N([C@@H](C)C1CC1)C2 [Example 241] | < 100 | 100 to 1000
Cc1cc(-c2ccn3nc(N)c(C(=O)NC4(C)CC4)c3n2)cc2c1C(=O)N([C@@H](C)C1CC1)C2 [Example 242] | < 100 | 100 to 1000
Cc1cc(-c2ccn3nc(N)c(C(=O)N[C@H]4CCCNC4)c3n2)cc2c1C(=O)N([C@@H](C)C1CC1)C2 [Example 243] | < 100 | 100 to 1000
Cc1cc(-c2ccn3nc(N)c(C(=O)N[C@H]4CCC[C@H](O)C4)c3n2)cc2c1C(=O)N([C@@H](C)C1CC1)C2 [Example 244] | < 100 | 100 to 1000
Cc1cc(-c2ccn3nc(N)c(C(=O)N[C@@H](C(N)=O)c4ccccc4)c3n2)cc2c1C(=O)N([C@@H](C)C1CC1)C2 [Example 245] | < 100 | 100 to 1000
Cc1cc(-c2ccn3nc(N)c(C(=O)NC4(CO)CC4)c3n2)cc2c1C(=O)N([C@@H](C)C1CC1)C2 [Example 246] | < 100 | 100 to 1000
Cc1cc(-c2ccn3nc(N)c(C(=O)NC4(C(N)=O)CC4)c3n2)cc2c1C(=O)N([C@@H](C)C1CC1)C2 [Example 247] | < 100 | 100 to 1000
Cc1cc(-c2ccn3nc(N)c(C(=O)NC(C)(C)c4ccncc4)c3n2)cc2c1C(=O)N([C@@H](C)C1CC1)C2 [Example 248] | < 100 | 100 to 1000
Cc1cc(-c2ccn3nc(N)c(C(=O)NC4CC4(C)C)c3n2)cc2c1C(=O)N([C@@H](C)C1CC1)C2 (some centres unmarked) [Example 249] | < 100 | 100 to 1000
Cc1cc(-c2ccn3nc(N)c(C(=O)NCC4(CO)CC4)c3n2)cc2c1C(=O)N([C@@H](C)C1CC1)C2 [Example 250] | < 100 | 100 to 1000
Cc1cc(-c2ccn3nc(N)c(C(=O)N4CC(O)C4)c3n2)cc2c1C(=O)N(C(C)C1CC1)C2 (centres unmarked) [Example 251] | < 100 | 100 to 1000
Cc1cc(-c2ccn3nc(N)c(C(=O)NC(C)C)c3n2)cc2c1C(=O)N([C@@H](C)C1CC1)C2 [Example 252] | < 100 | 100 to 1000
Cc1cc(-c2ccn3nc(N)c(C(=O)NC4(C(C)O)CC4)c3n2)cc2c1C(=O)N([C@@H](C)C1CC1)C2 (some centres unmarked) [Example 253] | < 100 | 100 to 1000
Cc1cc(-c2ccn3nc(N)c(C(=O)N[C@H]4CCCC[C@@H]4O)c3n2)cc2c1C(=O)N([C@@H](C)C1CC1)C2 [Example 254] | < 100 | 100 to 1000
Cc1cc(-c2ccn3nc(N)c(C(=O)NC4(C#N)CCC4)c3n2)cc2c1C(=O)N([C@@H](C)C1CC1)C2 [Example 255] | < 100 | 100 to 1000
Cc1cc(-c2ccn3nc(N)c(C(=O)NCC4(C#N)CC4)c3n2)cc2c1C(=O)N([C@@H](C)C1CC1)C2 [Example 256] | < 100 | 100 to 1000
Cc1cc(-c2ccn3nc(N)c(C(=O)NC[C@H]4CCOC4)c3n2)cc2c1C(=O)N([C@@H](C)C1CC1)C2 [Example 257] | < 100 | 100 to 1000
Cc1cc(-c2ccn3nc(N)c(C(=O)NC4CC(F)(F)C4)c3n2)cc2c1C(=O)N([C@@H](C)C1CC1)C2 [Example 258] | < 100 | 100 to 1000
Cc1cc(-c2ccn3nc(N)c(C(=O)NC4COCc5ccccc54)c3n2)cc2c1C(=O)N([C@@H](C)C1CC1)C2 (some centres unmarked) [Example 259] | < 100 | 100 to 1000
Cc1cc(-c2ccn3nc(N)c(C(=O)NCCC#N)c3n2)cc2c1C(=O)N([C@@H](C)C1CC1)C2 [Example 260] | < 100 | 100 to 1000
Cc1cc(-c2ccn3nc(N)c(C(=O)N[C@H]4CCOc5ccccc54)c3n2)cc2c1C(=O)N([C@@H](C)C1CC1)C2 [Example 261] | < 100 | 100 to 1000
